No end group written: not given here.

32 sequences from patent publication US7906484B2, “Complex for transferring an anionic substance into a cell” (Alnylam Pharmaceuticals, Inc., priority 2006, dated 2011) can be followed below.

In data set [1] the test system is E6AP mRNA in HCT116 cells. Briefly: siRNA AD-8724 delivery into HCT116 cells, inhibition of E6AP mRNA expression by bDNA assay. The data set is classed as cell-based, human. As to the method: All further experiments were carried out using HCT116 cells and inhibition of E6AP expression as readout.
HCT116-cells were obtained from the American Type Culture Collection (ATCC# CCL-247). They were cultured in McCoy's 5A medium (Biochrom AG, Berlin, Germany, Cat.# F1015) containing 10% fetal calf serum (FCS; Biochrom AG, Berlin, Germany, Cat.# S0115) and 2 mM L-Glutamin (Biochrom AG, Berlin, Germany, Cat.#: K0283) (standard growth medium). For incubation with peptide/siRNA, complexes, the medium was replaced by serum-free McCoy's 5A medium containing 2 mM L-Glutamin (serum free medium). After incubation with complexes for 4 h, McCoy's 5A medium containing 30% fetal calf serum and 2 mM L-Glutamin (triple FCS medium) was added to restore an overall 10% FCS in the medium.
The E6AP-specific siRNA denoted AD-8724 herein was used, having the following sequences: antisense strand: 5′-ucacauuccacguuaggugTsT-3′ (SEQ ID NO:51), sense strand 5′-caccuaacguggaaugugaTsT-3′; (SEQ ID NO:52; lower case letters: ribonucleotides; s: phosphorothioate backbone linkage). As a negative control, an siRNA specific for eGFP, denoted AD-5107 herein, was used, having the following sequences: antisense strand: 5′-aagucgugcugcuucauguggOMesuOMesc-3′ (SEQ ID NO:19), sense strand 5′-[…]-3′ (SEQ ID NO:18; lower case letters: ribonucleotides; subscript OMe: 2′-O-methyl-ribonucleotide; s: phosphorothioate backbone linkage). In addition to the non-specific control siRNA AD-5107, mock transfected cells treated with standard growth medium only were used as negative controls. As a positive control, AD-8724 was transfected into the cells using Lipofectamine2000™ (Invitrogen, Karlsruhe, Germany, Cat. No. 11668-019). As a further control, AD-5107 was transfected into cells using Lipofectamine2000™. All assays were performed in quadruplicates.
SiRNA/peptide complexes were prepared by mixing a solution of the siRNA in deionized water with a solution of the peptide in deionized water at the appropriate concentrations to give the desired ratio of siRNA/peptide at the desired concentration of the complex. The mixture was incubated at room temperature for 30 min and kept at 4° C. until use, and used within 24 h.
For transfections with siRNA/peptide complexes, 1.5×10^5 HCT116-cells per well in 150 μl standard growth medium were seeded into polystyrene 96 well plates and grown for 24 h at 37° C. in an atmosphere containing 5% CO2. The medium was removed by aspiration, and 90 μl serum-free medium and 10 μl of siRNA/peptide complex solution were added. Cells were incubated for 4 h at 37° C./5% CO2, 50 μl triple FCS medium were added, and the cells incubated for another 20 h under identical conditions. Subsequently, E6AP mRNA content was determined as described below.
For Lipofectamine2000™ transfections, 0.5 μl Lipofectamine2000™ were mixed with 12 μl OptiMem™ (Invitrogen, Karlsruhe, Germany, Cat. No. 11058-021) and incubated for 15 min. 1 μl of a 5 μM solution of the respective siRNA in PBS (Biochrom AG, Berlin, Germany, Cat-No: L182-05) were added to 11.5 μl OptiMeM™, mixed with the Lipofectamine2000™/OptiMem™ solution, and incubated for further 15 min. 1.5×10^5 HCT116-cells per well in 150 μl standard growth medium were grown for 24 h as described above, the growth medium removed from the cells by aspiration, and 75 μl fresh standard growth medium and the 25 μl of the siRNA/Lipofectamine2000™ mix were added to the well, to give a final siRNA concentration of 50 nM. The cells were incubated for 24 h at 37° C./5% CO2 and E6AP mRNA concentration determined.
The QuantiGene™ bDNA-kit from Panomics, Inc., Fremont, USA, was used according to manufacturer's instructions. Briefly, cells were lysed by adding 50 μl of Lysis Mixture (from QuantiGene bDNA-kit) to each well and incubation at 53° C. for 1 h. […]

For data set [2], the system named is eGFP-mRNA. Description: Influence of peptide/siRNA ratio on siRNA activity in HCT116 cells. The format is cell-based. The following applies: 250 nM siRNA. As to the method: The optimal ratio of (peptide):(anionic substance) for complex formation, was determined in section 3 above to lie in the range of 8:1 to 13:1 by titrating a fixed concentration of the anionic substance with increasing amounts of the peptide, and monitoring complex formation by electrophoresis of the mixture. To further validate and possibly narrow down the optimum ratio of peptide/anionic substance, an assay with a functional readout was performed. HCT116 cells were incubated with siRNA complexes as described above at concentrations such that the amount of siRNA in the incubation mixture corresponds to a 250 nM concentration of the siRNA, and the peptide/siRNA ratio was 8:1, 10:1, 12:1, or 14:1.

For data set [3], the system named is cell viability. Briefly: CytoTox ONE cell viability assay. The data set is classed as cell-based. The following applies: 2.5 μM peptide. As to the method: Delivery of siRNAs was tested in 7 different cell lines we obtained from the American Type Culture Collection, ATCC, via LCG Promochem GmbH, Wesel, Germany (PC12, ATTC# CRL-1721; HCT116, ATCC# CCL-247; C33A, ATCC# HTB-31; H441, ATCC# HTB-174; NMuLi, ATCC# CRL-1638; HepG2, ATCC# HB-8065; HeLa S3, ATCC# CCL2.2) and in the cell line KB-BCL2-GFP, as described in co-pending U.S. Ser. No. 10/941,663. Target mRNA quantification was performed using the QuantiGene™ bDNA-kit from Panomics, Inc., Fremont, USA, according to the manufacturers instructions, and essentially as described below for H441 cells. Genes constitutively expressed in the various cell lines were chosen as targets and results normalized to GAPDH expression. siRNA concentration was 250 nM, the concentration of the peptide was chosen as given by the molar ratio peptide/siRNA shown in Table 1. Cytotoxicity of peptides was evaluated employing the CytoTox-ONE™ assay (Promega GmbH, Mannheim, Germany).
Potential cytotoxic effects as mediator of inhibition were ruled out by determining cell viability in the presence of 2.5 μM of ppTG20, AP-0, AP-1, AP-27, AP-30, AP32 and AP-34 using the CytoTox ONE™ assay (Promega GmbH, Mannheim, Germany).

[4] abbreviates: siRNA AD-8724 250 nM, molar peptide/siRNA ratio 12.5:1.
Where [5] appears, read: AD-8724, siRNA/peptide conc. 25 nM/250 nM.
[6] abbreviates: AD-8724, siRNA/peptide conc. 250 nM/2.5 μM.
Setting [7] is: AD-8724, siRNA/peptide conc. 1 μM/10 μM.

As for GAFRAAARLLRSLWRALLRA [AP-24], the “remaining E6AP mRNA (in % of mock)” value in data set [1] (setting [4]) is reported as 91 ± 16%.
Still for that read-out and setting: then GAFRAAARLLRSLWRLLLRA [AP-23], with 82 ± 6%; and GAFRAALRLLRSLWRLLLRA [AP-21], with 53 ± 32%.
On the same count and under the same terms, as for GAYRAALRLLRSLWRLLSRA [AP-26], the figure is 78 ± 6%; as for GLFRALARALRSLWRALARA [AP-25], 83 ± 5%.
Consider GLFRALLRLLRRLWRLLLRA [AP-3], for which the “Remaining eGFP-mRNA in % of mock-transfected controls” value (“Remaining eGFP-mRNA in %” for short) in data set [2] (peptide/siRNA ratio 8:1) came out at 39 ± 10%; in data set [2] (peptide/siRNA ratio 10:1), 32 ± 4%; in data set [2] (peptide/siRNA ratio 12:1) it was 40 ± 5%; in data set [2] (peptide/siRNA ratio 14:1) it was 40 ± 8%. In addition, in data set [1] (setting [4]), the “remaining E6AP mRNA (in % of mock)” value amounted to 43 ± 7%.
Regarding GLFRALLRLLRSLWRALARA [AP-22], in data set [1] (setting [4]), the “remaining E6AP mRNA (in % of mock)” value amounted to 32 ± 14%.
Consider “GLFRALLRLLRSLWRLLLRA [ppTG20, reference compound]”, for which, in data set [3], the cell viability result is listed as “None of these peptides led to a significant alteration of cell viability”.
In the case of GLFRALLRLLRSLWRLLLRAHHHHH [AP-0], in data set [3], the cell viability result is given as “None of these peptides led to a significant alteration of cell viability”.
For GLFRALLRLLRSLWRLLRRA [AP-2], the “Remaining eGFP-mRNA in %” value in data set [2] (peptide/siRNA ratio 8:1) was found to be 54 ± 6%; in data set [2] (peptide/siRNA ratio 10:1), 35 ± 15%; in data set [2] (peptide/siRNA ratio 12:1) it was 32 ± 11%; in data set [2] (peptide/siRNA ratio 14:1), 36 ± 7%. In addition, the “remaining E6AP mRNA (in % of mock)” value in data set [1] (setting [4]) stood at 58 ± 7%.
On to GLFRALLRLLRSLWRLLSRA [AP-16], for which the “remaining E6AP mRNA (in % of mock)” value in data set [1] (setting [4]) amounted to 43 ± 13%.
Turning to GLFRALLRLLRSLWRSLLRA [AP-17], the “remaining E6AP mRNA (in % of mock)” value in data set [1] (setting [4]) came to 37 ± 9%.
On the same count and under the same terms, then GLFRALLRLLRSLWRSLSRA [AP-18], with 49 ± 3%.
For the sequence GLFRALRRLLRSLWRLLRRA [AP-5], the “remaining E6AP mRNA (in % of mock)” value in data set [1] (setting [4]) is 108 ± 47%.
Same read-out and setting: then GLYRALLRLLRSLWRLLLRA [AP-19], with 27 ± 9%; and GLYRALLRLLRSLWRLLSRA [AP-20], with 45 ± 6%.
In the case of HHHHHRLFRALLRLLRSLWRLLLRA [AP-30], the cell viability entry in data set [3] was “None of these peptides led to a significant alteration of cell viability”.
The same measure, in the same setting: as for HHHHHRLFRALLRLLRSLWRLLLRAHHHHH [AP-32], the entry is “None of these peptides led to a significant alteration of cell viability”.
HLFRALHRLLRHLWRLLHRA [AP-12]: in data set [1] (setting [4]), the “remaining E6AP mRNA (in % of mock)” value was 94 ± 31%.
HLFRALLRLLRHLWRLLHRA [AP-11]: the “Remaining eGFP-mRNA in %” value in data set [2] (peptide/siRNA ratio 8:1) is 27 ± 5%; in data set [2] (peptide/siRNA ratio 10:1) it was 30 ± 8%; in data set [2] (peptide/siRNA ratio 12:1), 30 ± 5%; in data set [2] (peptide/siRNA ratio 14:1), 24 ± 5%. The “remaining E6AP mRNA (in % of mock)” value in data set [1] (setting [4]) came to 62 ± 15%.
For HLFRALLRLLRHLWRLLLRAHHHHH [AP-29], the “remaining E6AP mRNA (in % of mock)” value in data set [1] (setting [5]) is given as 58 ± 8%; in data set [1] (setting [6]), 16 ± 2%; in data set [1] (setting [7]) it was 11 ± 1%.
On to HLFRALLRLLRSLWRLLHRA [AP-9], for which the “Remaining eGFP-mRNA in %” value in data set [2] (peptide/siRNA ratio 8:1) is reported as 38 ± 6%; in data set [2] (peptide/siRNA ratio 10:1), 31 ± 3%; in data set [2] (peptide/siRNA ratio 12:1), 22 ± 1%; in data set [2] (peptide/siRNA ratio 14:1), 36 ± 7%. Further, the “remaining E6AP mRNA (in % of mock)” value in data set [1] (setting [4]) came out at 53 ± 17%.
Regarding HLFRALRRLLRHLWRLLRRA [AP-13], the “remaining E6AP mRNA (in % of mock)” value in data set [1] (setting [4]) is listed as 59 ± 7%.
As for HLFRHLLRLLRHLWRHLLRA [AP-15], the “Remaining eGFP-mRNA in %” value in data set [2] (peptide/siRNA ratio 8:1) is 32 ± 5%; in data set [2] (peptide/siRNA ratio 10:1) it was 26 + 2%; in data set [2] (peptide/siRNA ratio 12:1), 22 ± 4%; in data set [2] (peptide/siRNA ratio 14:1) it was 43 ± 5%. Moreover, in data set [1] (setting [4]), the “remaining E6AP mRNA (in % of mock)” value came to 77 ± 39%.
The like results for HLFRHLLRLLRRLWHLLHRA [AP-14] were, in that order, 41 ± 2%, 41 ± 12%, 19 ± 2%, 39 ± 7% and 56 ± 21%.
On to RLFPALLRLLRRLWRLLLRA [AP-6], for which the “Remaining eGFP-mRNA in %” value is given as 62 ± 9% in data set [2] (peptide/siRNA ratio 8:1), 36 ± 8% in data set [2] (peptide/siRNA ratio 10:1), 63 ± 18% in data set [2] (peptide/siRNA ratio 12:1) and 54 ± 9% in data set [2] (peptide/siRNA ratio 14:1). In data set [1] (setting [4]), the “remaining E6AP mRNA (in % of mock)” value was 41 ± 11%.
In the case of RLFRALLRLLRRLWRLLRRA [AP-7], the “remaining E6AP mRNA (in % of mock)” value in data set [1] (setting [4]) is 134 ± 19%.
In the case of RLFRALLRLLRSLWRLLLRA [AP-1], the cell viability result in data set [3] was “None of these peptides led to a significant alteration of cell viability”.
On the same count and under the same terms, as for RLFRALLRLLRSLWRLLLRAHHHHH [AP-27], the entry is “None of these peptides led to a significant alteration of cell viability”; as for RLFRALLRLLRSLWRLLLRAHHHHHHHHHH [AP-34], “None of these peptides led to a significant alteration of cell viability”.
Regarding RLFRALLRLLRSLWRLLRRAHHHHH [AP-28], the “remaining E6AP mRNA (in % of mock)” value in data set [1] (setting [5]) was determined as 105 ± 13%; in data set [1] (setting [6]), 30 ± 9%; in data set [1] (setting [7]) it was 18 ± 2%.
Take RLFRALRRLLRRLWRLLRRA [AP-8]: in data set [1] (setting [4]), the “remaining E6AP mRNA (in % of mock)” value came to 170 ± 44%.
